{"source": "patent US20250163104A1", "about": "“MACROCYCLIC IMMUNOMODULATORS” (priority 2021, published 2025)", "note": "*1 amine or outer side, *2 acyl side, *3 side chain or, on linkers, in order; H or OH if unused. Where a SMILES comes first, the peptide text is derived from it. Bridges are numbered along the chain shown (N, C = ends). [ ]: non-standard residue; d: D form. X5 = O=C([C@H](Cc1ccc2ncccc2c1)N[*:1])[*:2]; Bip = N[C@@H](Cc1ccc(-c2ccccc2)cc1)C(=O)O; 3Pal = N[C@@H](Cc1cccnc1)C(=O)O; 4Pal = N[C@@H](Cc1ccncc1)C(=O)O; Cha = N[C@@H](CC1CCCCC1)C(=O)O; Orn = NCCC[C@H](N)C(=O)O; Dab = NCC[C@H](N)C(=O)O; Dap = NC[C@H](N)C(=O)O"}
{"target": "T1, human PD-1 / PD-L1-Ig binding on Jurkat cell line over-expressing human PD-1 (Jurkat-PD-1) (Homo sapiens, UniProt Q15116)", "T1 construct": "expressed in transfected cells; host or cells: Jurkat", "T1 sequence (Q15116 25-288)": "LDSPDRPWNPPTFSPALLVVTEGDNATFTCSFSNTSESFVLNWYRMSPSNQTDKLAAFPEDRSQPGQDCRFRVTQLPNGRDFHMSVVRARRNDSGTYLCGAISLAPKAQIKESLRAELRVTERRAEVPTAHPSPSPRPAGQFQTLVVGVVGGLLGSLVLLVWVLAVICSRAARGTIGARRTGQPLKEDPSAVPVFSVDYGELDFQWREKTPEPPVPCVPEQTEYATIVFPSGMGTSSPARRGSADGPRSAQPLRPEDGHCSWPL", "assay": "Jurkat-PD-1 Cell Binding High-Content Screening Assay (CBA)", "format": "cell-based", "conditions": "Jurkat-PD-1 cells, PE-labeled PD-L1-Ig 20 nM final; read-out: Jurkat HPD1_PDL1 IC50", "procedure,_shortened": "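Compounds were preincubated with Jurkat-hPD-1 cells in DMEM plus 10% fetal calf serum for 2 h at 37° C. Phycoerythrin-labeled PD-L1-Ig (20 nM final) was then added for 1 hour. Cells were fixed in 4% paraformaldehyde with Hoechst 33342, and bound fluorescence was quantified by high-content imaging.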", "units": {"IC50": "µM"}}
{"smiles": "CC(C)C[C@H]1NC(=O)[C@H](CCCN)NC(=O)[C@H](CCC(=O)O)NC(=O)[C@H](Cc2ccc(-c3ccccc3)cc2)NC(=O)[C@H](C(C)C)NC(=O)[C@H](Cc2c[nH]c3ccccc23)NC(=O)[C@H](CC(=O)O)NC(=O)[C@H](Cc2cccnc2)NC(=O)[C@H](CC(N)=O)NC(=O)CSC[C@@H](C(=O)N[C@@H](C)C(N)=O)NC(=O)[C@H]([C@@H](C)O)NC(=O)[C@H](C(C)C)NC(=O)[C@H](CC2CCCCC2)NC(=O)[C@H](CCN)NC1=O", "note": "[Compound 2170] ({CH2CO}-N[3Pal]DWV[Bip]E[Orn][dL][Dab][Cha]VTCA-NH2; thioether N-14)", "IC50": 0.0054}
{"smiles": "CC(C)C[C@H]1NC(=O)[C@H](CCCN)NC(=O)[C@H](CCC(=O)O)NC(=O)[C@H](Cc2ccc(-c3ccccc3)cc2)NC(=O)[C@H](C(C)C)NC(=O)[C@H](Cc2c[nH]c3ccccc23)NC(=O)[C@H](CC(=O)O)NC(=O)[C@H](Cc2cccnc2)NC(=O)[C@H](Cc2ccccc2)NC(=O)CSC[C@@H](C(=O)N[C@@H](C)C(N)=O)NC(=O)[C@H]([C@@H](C)O)NC(=O)[C@H](C(C)C)NC(=O)[C@H](CC2CCCCC2)NC(=O)[C@H](CCN)NC1=O", "note": "[Compound 2171] ({CH2CO}-F[3Pal]DWV[Bip]E[Orn][dL][Dab][Cha]VTCA-NH2; thioether N-14)", "IC50": 0.0191}
{"smiles": "CC(C)C[C@H]1NC(=O)[C@H](CCCN)NC(=O)[C@H](CCC(=O)O)NC(=O)[C@H](Cc2ccc(-c3ccccc3)cc2)NC(=O)[C@H](C(C)C)NC(=O)[C@H](Cc2c[nH]c3ccccc23)NC(=O)[C@H](CC(=O)O)NC(=O)[C@H](Cc2cccnc2)NC(=O)[C@H](CN)NC(=O)CSC[C@@H](C(=O)N[C@@H](C)C(N)=O)NC(=O)[C@H]([C@@H](C)O)NC(=O)[C@H](C(C)C)NC(=O)[C@H](CC2CCCCC2)NC(=O)[C@H](CCN)NC1=O", "note": "[Compound 2172] ({CH2CO}-[Dap][3Pal]DWV[Bip]E[Orn][dL][Dab][Cha]VTCA-NH2; thioether N-14)", "IC50": 0.0237}
{"smiles": "CC(C)C[C@H]1NC(=O)[C@H](CCCN)NC(=O)[C@H](CCC(=O)O)NC(=O)[C@H](Cc2ccc(-c3ccccc3)cc2)NC(=O)[C@H](C(C)C)NC(=O)[C@H](Cc2c[nH]c3ccccc23)NC(=O)[C@H](CC(=O)O)NC(=O)[C@H](Cc2cccnc2)NC(=O)[C@H](Cc2ccc(OCC(=O)O)cc2)NC(=O)CSC[C@@H](C(=O)N[C@@H](C)C(N)=O)NC(=O)[C@H]([C@@H](C)O)NC(=O)[C@H](C(C)C)NC(=O)[C@H](CC2CCCCC2)NC(=O)[C@H](CCN)NC1=O", "note": "[Compound 2173]", "IC50": 0.0168}
{"smiles": "CC(C)C[C@H]1NC(=O)[C@H](CCCN)NC(=O)[C@H](CCC(=O)O)NC(=O)[C@H](Cc2ccc(-c3ccccc3)cc2)NC(=O)[C@H](C(C)C)NC(=O)[C@H](Cc2c[nH]c3ccccc23)NC(=O)[C@H](CC(=O)O)NC(=O)[C@H](Cc2cccnc2)NC(=O)[C@H](Cc2ccncc2)NC(=O)CSC[C@@H](C(=O)N[C@@H](C)C(N)=O)NC(=O)[C@H]([C@@H](C)O)NC(=O)[C@H](C(C)C)NC(=O)[C@H](CC2CCCCC2)NC(=O)[C@H](CCN)NC1=O", "note": "[Compound 2174] ({CH2CO}-[4Pal][3Pal]DWV[Bip]E[Orn][dL][Dab][Cha]VTCA-NH2; thioether N-14)", "IC50": 0.0177}
{"smiles": "CC(C)C[C@H]1NC(=O)[C@H](CCCN)NC(=O)[C@H](CCC(=O)O)NC(=O)[C@H](Cc2ccc(-c3ccccc3)cc2)NC(=O)[C@H](C(C)C)NC(=O)[C@H](Cc2c[nH]c3ccccc23)NC(=O)[C@H](CC(=O)O)NC(=O)[C@H](Cc2ccc3ncccc3c2)NC(=O)[C@H](CC(N)=O)NC(=O)CSC[C@@H](C(=O)N[C@@H](C)C(N)=O)NC(=O)[C@H]([C@@H](C)O)NC(=O)[C@H](C(C)C)NC(=O)[C@H](CC2CCCCC2)NC(=O)[C@H](CCN)NC1=O", "note": "[Compound 2175] ({CH2CO}-N[X5]DWV[Bip]E[Orn][dL][Dab][Cha]VTCA-NH2; thioether N-14)", "IC50": 0.0694}
